Here are results for 19 compounds from US20210355104A1, “ADENOSINE RECEPTOR BINDING COMPOUNDS” (Nikang Therapeuticsm Inc., priority 2018, published 2021).

“And” between values parts separate entries of the source, which are not always exact repeats. Identical values can stand only once. Like-named read-outs stand apart in the source and are kept apart here.

For test [1], the system named is p-CREB (phosphorylated cAMP response-element binding protein) in human whole blood. The experiment in a line: p-CREB assay in human whole blood by flow cytometry (NECA stimulation, CD4 staining). Type of test: cell-based. On the procedure: Assay protocol for p-CREB (phosphorylated cAMP response-element binding protein) in human whole blood by flow cytometry
Fresh human whole blood (Biological Specialty Corporation) was added at 100 ul per wellinto a 96-well plate and treated with test compounds (Serial dilutions of 1:3 with starting concentration at 30 uM, 11 concentrations total, in the presence of adenosine deaminase) for one hour at room temperature on a plate shaker. Then 10 ul of 10× NECA (50 uM stock in PBS) and 10 ul of 10 × Rolipram (50 uM stock in PBS) were added, with designated wells for unstimulated (Rolipram+DMSO) and stimulated (Rolipram+NECA+DMSO) conditions. The plates were mixed well and incubated at room temperature for 30 min on a plate shaker. 1× lyse/Fix buffer (5× stock, BD #558049) was warmed to 37° in a water bath. 1200 ul of pre-warmed 1× lyse/Fix buffer was then added to the plate, which was then sealed and mixed by inverting the plate a few times. The plate was then incubated for 30 min at 37° in a water bath. After incubation, the plate was centrifuged at 1600 rpm for 5 min and the supernatant was decanted, then 1200 ul PBS was added and the plate was mixed by inverting a few times followed by centrifuging at 1600 rpm for 5 min and again decanting the supernatant. Then, 200 ul FIX PERM buffer II (BD #558052) was added and the plate was mixed well, then kept on ice for 45 min After spinning the plate at 1600 rpm for 5 min the supernatant was again decanted. Then was added 200 ul staining buffer (BD #554657), and the plate was mixed well and spun at 1600 rpm for 5 min, then the supernatant was again decanted. 200 ul staining buffer was added, the plate was mixed well and the plate was sealed at this step for storage at 4° overnight or until staining. Before staining, the plate was spun at 1600 rpm for 5 min and the supernatant was again decanted. Antibody mix in staining buffer was prepared (75 ul/well, 1:50 dilution for p-CREB antibody from Cell Signaling Tech #14001S, 1:200 dilution for CD4 antibody from BD #566320) and the cells were resuspended in the above antibody mix solution. After mixing well, the plate was incubated (shielded from light) at room temperature for two hours on a plate shaker. It was then spun at 1600 rpm for 5 min and the supernatant was decanted. 200 ul staining buffer was then added to wash cells, and the plate was then mixed by shaking or pipetting. The wash step was repeated at least one more time, and after the final wash, cells were resusptended in 200 ul staining buffer in U bottom plate for flow cytometry analysis.
(In general: Flow cytometry measures light scatter and fluorescence of single cells or particles in a stream.)

Test [2] has as its target Adenosine A2A receptor (Homo sapiens, UniProt P29274). Kind of test: cAMP assay in 293A cells stably expressing the adenosine A2A receptor (CGS21680 stimulation, HTRF). Type of test: cell-based. Also on record: expressed in transfected cells; host or cells: 293A cells (Invitrogen, Cat# R705-07) infected with A2A-expressing lentivirus (custom packaged by Biosettia), puromycin selected. The following applies: 0.1% BSA. In general terms: Changes in cAMP serve as a functional read-out for many G protein-coupled receptors.

Where [3] appears, read: 293A-A2AR cells, 1 uM CGS, read-out: cAMP (nM) 0.1% BSA, 1 uM CGS.
[4] abbreviates: Homo sapiens, replicate values separated by /.
Where [5] appears, read: replicate values separated by /.
[6] abbreviates: 293A cells stably expressing A2A receptor, 1 uM CGS21680 stimulation, replicate values separated by /, read-out: cAMP (nM) 0.1% BSA, 1 uM CGS.

Adenosine A2A receptor, sequence (P29274 whole entry): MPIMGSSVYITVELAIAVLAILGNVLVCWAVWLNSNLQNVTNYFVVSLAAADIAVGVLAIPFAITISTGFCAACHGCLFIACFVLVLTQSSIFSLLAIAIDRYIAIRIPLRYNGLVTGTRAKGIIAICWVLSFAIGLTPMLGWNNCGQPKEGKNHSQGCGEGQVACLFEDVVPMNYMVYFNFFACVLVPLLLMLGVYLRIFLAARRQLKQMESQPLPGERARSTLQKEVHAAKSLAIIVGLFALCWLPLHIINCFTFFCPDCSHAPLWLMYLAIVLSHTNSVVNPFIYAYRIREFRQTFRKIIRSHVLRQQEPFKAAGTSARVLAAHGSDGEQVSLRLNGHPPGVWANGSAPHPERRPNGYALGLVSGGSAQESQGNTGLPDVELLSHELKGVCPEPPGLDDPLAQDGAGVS

On to `Cc1cc(-c2c(OCCN(C)c3nccc(C(C)(C)C(=O)O)n3)nc(N)nc2-c2ccc(F)cc2)cc(C(F)F)n1` [Example 373, 2-(2-((2-((2-amino-5-(2-(difluoromethyl)-6-methylpyridin-4-yl)-6-(4-fluorophenyl)pyrimidin-4-yl)oxy)ethyl)(methyl)amino)pyrimidin-4-yl)-2-methylpropanoic acid], for which the IC50 in test [1] (Homo sapiens) is 421 nM; in test [2] (setting [3]) it was 240 nM and 248 nM and 387 nM and 191 nM.
On to `CNC(=O)OCc1cccc(COc2nc(N)nc(-c3ccc(F)cc3)c2-c2cc(C)nc(C(F)F)c2)n1` [Example 425, (6-(((2-amino-5-(2-(difluoromethyl)-6-methylpyridin-4-yl)-6-(4-fluorophenyl)pyrimidin-4-yl)oxy)methyl)pyridin-2-yl)methyl methylcarbamate], for which the IC50 in test [1] (setting [4]) is 33.3 nM; in test [1] (setting [5]), 29 nM; in test [2] (setting [6]), 35 nM and 74 nM and 23 nM.
On to `Cc1cc(-c2c(OCc3nccn3C(C)C)nc(N)nc2-c2ccc(F)cc2)cc(C(F)F)n1` [Example 99, 5-(2-(difluoromethyl)-6-methylpyridin-4-yl)-4-(4-fluorophenyl)-6-((1-isopropyl-1H-imidazol-2-yl)methoxy)pyrimidin-2-amine], for which the IC50 in test [1] (Homo sapiens, values separated by / are repeat determinations) was 47 nM; in test [2] (293A-A2AR cells, 8 nM CGS, values separated by / are repeat determinations, read-out: cAMP (nM) 0.1% BSA, 8 nM CGS), 0.064 nM and 0.19 nM; in test [2] (293A-A2AR cells, 1 uM CGS, values separated by / are repeat determinations, read-out: cAMP (nM) 0.1% BSA, 1 uM CGS) it was 32 nM and 22 nM.
On to `Cc1cc(-c2c(OCc3cccc(C(C)(C)NC(CO)CO)n3)nc(N)nc2-c2ccc(F)cc2)cc(C(F)F)n1` [Example 417, 2-((2-(6-(((2-amino-5-(2-(difluoromethyl)-6-methylpyridin-4-yl)-6-(4-fluorophenyl)pyrimidin-4-yl)oxy)methyl)pyridin-2-yl)propan-2-yl)amino)propane-1,3-diol], for which the IC50 was 38.7 nM in test [1] (setting [4]); 60 nM and 44 nM in test [2] (setting [6]).
Consider `Cc1cc(-c2c(OCc3cccc(N(CCO)CCO)n3)nc(N)nc2-c2ccc(F)cc2)cc(C(F)F)n1` [Example 402, 2,2′-((6-(((2-amino-5-(2-(difluoromethyl)-6-methylpyridin-4-yl)-6-(4-fluorophenyl)pyrimidin-4-yl)oxy)methyl)pyridin-2-yl)azanediyl)bis(ethan-1-ol)], for which the IC50 is 692 nM in test [1] (setting [4]); 515 nM and 579 nM and 560 nM in test [2] (setting [6]).
Consider `Cc1cc(-c2c(OCc3cccc(C4(C(=O)O)CC4)n3)nc(N)nc2-c2ccc(F)cc2)cc(C(F)F)n1` [Example 391, 1-(6-(((2-amino-5-(2-(difluoromethyl)-6-methylpyridin-4-yl)-6-(4-fluorophenyl)pyrimidin-4-yl)oxy)methyl)pyridin-2-yl)cyclopropane-1-carboxylic acid], for which the IC50 was 602 nM in test [1] (Homo sapiens); 1130 nM and 979 nM in test [2] (setting [3]).
`Cc1cc(-c2c(OCc3ncccc3C(C)(C)O)nc(N)nc2-c2ccc(F)cc2)cc(C(F)F)n1` [Example 238]: the IC50 was 36.3 nM in test [1] (Homo sapiens) and 313 nM in test [2] (setting [3]).
Regarding `Cc1cc(-c2c(OCc3cccc(C(C)(C)C(=O)O)n3)nc(N)nc2-c2ccc(F)cc2)cc(C(F)F)n1` [Example 263, 2-(6-(((2-amino-5-(2-(difluoromethyl)-6-methylpyridin-4-yl)-6-(4-fluorophenyl)pyrimidin-4-yl)oxy)methyl)pyridin-2-yl)-2-methylpropanoic acid], the IC50 was 114 nM in test [1]; 82 nM in test [1] (Homo sapiens); 33 nM and 168 nM and 95 nM and 126 nM in test [2] (setting [3]).
Turning to `Cc1cc(-c2c(OCc3nnn(C)n3)nc(N)nc2-c2ccc(F)cc2)cc(C(F)F)n1` [Example 241, 5-(2-(difluoromethyl)-6-methylpyridin-4-yl)-4-(4-fluorophenyl)-6-((2-methyl-2H-tetrazol-5-yl)methoxy)pyrimidin-2-amine], the IC50 is 221 nM in test [1] (Homo sapiens) and 213 nM in test [2] (setting [3]).
In the case of `Cc1cc(-c2c(OCCN(C)c3cccc(C(C)(C)C(=O)O)n3)nc(N)nc2-c2ccc(F)cc2)cc(C(F)F)n1` [Example 339, 2-(6-((2-((2-amino-5-(2-(difluoromethyl)-6-methylpyridin-4-yl)-6-(4-fluorophenyl)pyrimidin-4-yl)oxy)ethyl)(methyl)amino)pyridin-2-yl)-2-methylpropanoic acid], the IC50 in test [1] (Homo sapiens) was 166 nM; in test [2] (setting [3]), 561 nM and 795 nM and 230 nM.
In the case of `Cc1cc(-c2c(OCc3cccc(CNCC(N)=O)n3)nc(N)nc2-c2ccc(F)cc2)cc(C(F)F)n1` [Example 433, 2-(((6-(((2-amino-5-(2-(difluoromethyl)-6-methylpyridin-4-yl)-6-(4-fluorophenyl)pyrimidin-4-yl)oxy)methyl)pyridin-2-yl)methyl)amino)acetamide], the IC50 was 59 nM in test [1] (setting [4]); 342 nM and 210 nM in test [2] (setting [6]).
Take `Cc1cc(-c2c(OCc3cccc(CNC(CO)CO)n3)nc(N)nc2-c2ccc(F)cc2)cc(C(F)F)n1` [Example 419, 2-(((6-(((2-amino-5-(2-(difluoromethyl)-6-methylpyridin-4-yl)-6-(4-fluorophenyl)pyrimidin-4-yl)oxy)methyl)pyridin-2-yl)methyl)amino)propane-1,3-diol]: the IC50 in test [1] (setting [4]) was 87.8 nM; in test [2] (setting [6]) it was 470 nM and 311 nM.
Regarding `Cc1cc(-c2c(OCc3cccc(C(C)(C)C#N)n3)nc(N)nc2-c2ccc(F)cc2)cc(C(F)F)n1` [Example 230, 2-(6-(((2-amino-5-(2-(difluoromethyl)-6-methylpyridin-4-yl)-6-(4-fluorophenyl)pyrimidin-4-yl)oxy)methyl)pyridin-2-yl)-2-methylpropanenitrile], the IC50 in test [1] is 37.6 nM; in test [1] (Homo sapiens), 32.4 nM; in test [2] (setting [3]), 7 nM and 40 nM and 64 nM.
With `CCn1c(COc2nc(N)nc(-c3ccc(F)cc3)c2-c2cc(C)nc(C(F)F)c2)nc2cccnc21` [Example 329, 5-(2-(difluoromethyl)-6-methylpyridin-4-yl)-4-((3-ethyl-3H-imidazo[4,5-b]pyridin-2-yl)methoxy)-6-(4-fluorophenyl)pyrimidin-2-amine], the IC50 is 128 nM in test [1] (Homo sapiens); 87 nM and 249 nM and 153 nM in test [2] (setting [3]).
For the compound `Cc1cc(-c2c(OCc3ccnc(N)n3)nc(N)nc2-c2ccc(F)cc2)cc(C(F)F)n1` [Example 413, 4-((2-aminopyrimidin-4-yl)methoxy)-5-(2-(difluoromethyl)-6-methylpyridin-4-yl)-6-(4-fluorophenyl)pyrimidin-2-amine], the IC50 in test [1] (setting [4]) was 50.2 nM; in test [1] (setting [5]) it was 40.8 nM; in test [2] (setting [6]) it was 4.5 nM and 19 nM and 14 nM.
Turning to `Cc1cc(-c2c(OCCc3ccccn3)nc(N)nc2-c2ccc(F)cc2)cc(C(F)F)n1` [Example 313, 5-(2-(difluoromethyl)-6-methylpyridin-4-yl)-4-(4-fluorophenyl)-6-(2-(pyridin-2-yl)ethoxy)pyrimidin-2-amine], the IC50 in test [1] (Homo sapiens) was 71.5 nM; in test [2] (setting [3]), 20 nM and 64 nM.
For the compound `Cc1cc(-c2c(OCc3nccn3C(F)F)nc(N)nc2-c2ccc(F)cc2)cc(C(F)F)n1` [Example 306, 4-((1-(difluoromethyl)-1H-imidazol-2-yl)methoxy)-5-(2-(difluoromethyl)-6-methylpyridin-4-yl)-6-(4-fluorophenyl)pyrimidin-2-amine], the IC50 in test [1] (Homo sapiens) was 6.9 nM; in test [2] (setting [3]) it was 26 nM and 23 nM.
With `Cc1cc(-c2c(OCc3cccc(C(C)(C)NCCO)n3)nc(N)nc2-c2ccc(F)cc2)cc(C(F)F)n1` [Example 407, 2-((2-(6-(((2-amino-5-(2-(difluoromethyl)-6-methylpyridin-4-yl)-6-(4-fluorophenyl)pyrimidin-4-yl)oxy)methyl)pyridin-2-yl)propan-2-yl)amino)ethan-1-ol], the IC50 is 91.5 nM in test [1] (setting [4]); 107 nM and 88 nM in test [2] (setting [6]).
On to `Cc1cc(-c2c(OCc3cccc(OC(CO)CO)n3)nc(N)nc2-c2ccc(F)cc2)cc(C(F)F)n1` [Example 420], for which the IC50 was 55.7 nM in test [1] (setting [4]); 122 nM and 112 nM in test [2] (setting [6]).
